The values that follow are results of earlier work, collected in patent US20100047451A1, “ACTINIC-RADIATION CURABLE INK COMPOSITION, INK SET, INK JET PRINTING APPARATUS, AND INK JET RECORDING METHOD USING ACTINIC-RADIATION CURABLE INK COMPOSITION” (SEIKO EPSON CORPORATION, priority 2008, published 2010).

For one data set the following is noted: measurements at 25° C.
For the compound `C=CC(=O)OCC1COC(C)(CC)O1` (stereo not drawn) [(2-Methyl-2-ethyl-1,3-dioxolan-4-yl)methyl acrylate], the Viscosity was 5.1 mPa · s.
Turning to Polyethylene glycol 200 dimethacrylate, the Viscosity was 14 mPa · s.

For the next data set the following is noted: primary irritation index.
With `C=C(C)C(=O)OCC(CC)(COC(=O)C(=C)C)COC(=O)C(=C)C` [Trimethylolpropane trimethacrylate], the PII was 0.8.
Consider `C=C(C)C(=O)OCCOCCOC(=O)C(=C)C` [Diethylene glycol dimethacrylate], for which the PII was 0.5.
As to `C=CC(=O)O[C@@H]1C[C@H]2CC[C@]1(C)C2(C)C` [Isobornyl acrylate], the PII was 0.6.
With Polyethylene glycol #400 diacrylate, the PII is on record as 0.4.
On to `C=CC(=O)OCCCCCCCCCOC(=O)C=C` [1,9-Nonanediol diacrylate], for which the PII is reported as 2.0.
Consider Trimethylolpropane-modified triacrylate, for which the PII is recorded as 1.5.
Consider `C=CC(=O)OCCOc1ccccc1` [Phenoxyethyl acrylate], for which the PII was 1.7.
`C=CC(=O)OCCOCCOC` [Methoxy diethylene glycol monoacrylate]: the PII is given as 0.7.
`C=C(C)C(=O)OCCOC(=O)C(=C)C` [Ethylene glycol dimethacrylate]: the PII was 0.6.
Turning to `C=C(C)C(=O)OCC(O)COC(=O)C(=C)C` [2-Hydroxy-1,3-dimethacryloxypropane], the PII is 0.6.
As for `C=CC(=O)OCC1COC(C)(CC)O1` (stereo not drawn) [(2-Methyl-2-ethyl-1,3-dioxolan-4-yl)methyl acrylate], the PII was 1.3.
In the case of `C=CC(=O)OCC1COC(C)(CC(C)C)O1` (stereo not drawn) [(2-Methyl-2-isobutyl-1,3-dioxolan-4-yl)methyl acrylate], the PII was 1.0.
For the compound “Trimethylolpropane PO-modified triacrylate”, the PII is 0.1.
As for Polyethylene glycol 200 dimethacrylate, the PII is on record as 0.5.
For `C=CC(=O)N1CCOCC1` [Acryloylmorpholine], the PII is given as 0.5.
`C=CC(=O)OCC(C)OCC(C)OCC(C)OC(=O)C=C` (stereo not drawn) [Tripropylene glycol diacrylate]: the PII is reported as 1.6.
With `C=C(C)C(=O)OCCCCCCOC(=O)C(=C)C` [1,6-Hexanediol dimethacrylate], the PII is reported as 0.5.
Take Glycerol PO-modified triacrylate: the PII is recorded as 0.8.
Turning to `C=C(C)C(=O)OCC(C)(C)COC(=O)C(=C)C` [Neopentyl glycol dimethacrylate], the PII is reported as 0.0.
